Measured values reported in patent US8969333B2, “Therapeutic compositions and methods” (The Penn State Research Foundation, priority 2010, dated 2015).

Experiments:
[1] = Three-month YW3-56 treatment of nude mice: body and vital organ size; assay type: in vivo, mouse; details: 10 mg/kg, three months
Procedure: (§1) FIGS. 11a and 11b show results of the effect of long term YW3-56 treatment in mice. A pair of nude mice is mock injected or injected with YW3-56 for three months. RT-qPCR analyses of p53 and its target gene mRNA levels in control and YW3-56 treated mice. […] However, these changes are at low levels and no clear change in liver weight and morphology is observed.
A three-month YW3-56 treatment including daily injection of YW3-56 at 10 mg/kg body weight in a pair of nude mice is performed and the size of mouse body and vital organs is not altered after YW3-56 treatment as shown in FIG. 13.

[2] = tested on: p53 and its target genes; assay: RT-qPCR of p53 and its target gene mRNA in liver and spleen of treated nude mice; assay type: in vivo, mouse; details: YW3-56 10 mg/kg, 3 months
Procedure: (§2) RNA was extracted using RNeasy Mini Kit (Qiagen) per manufacturer's instructions. 1 μg RNA was reverse transcribed into cDNA using qScript cDNA SuperMix (Quanta Biosciences) per manufacturer's instructions. Quantitative PCR was performed using SYBR Green SuperMix (Quanta Biosciences) in StepOnePlus Real-Time PCR System (Applied Biosystems). FIG. 10 is a graph showing p53 and its target gene expression induced in S180 cells by YW3-56 in a concentration dependent manner.
Expression of p53 and its target genes in mouse liver and spleen after YW3-56 injection at 10 mg/kg body weight once every two days for 3 months.
as §1

[3] = tested on: Sesn2 promoter (+733 position); assay: ChIP analysis at the sestrin2 promoter in U2OS cells; assay type: cell-based, human; details: 8 μM, 8 hr
Procedure: Chromatin immunoprecipitation experiments are performed to test if p53 and histone Arg modifications directly regulate Sesn2 gene promoter. ChIP experiments were carried out essentially as described in Li, P. et al., Mol. Cell Biol., 28 (15), 4745-4758 (2008). Antibodies used in ChIP were: anti-p53 (Sigma), anti-PAD4, anti-H3Cit (Abeam), anti-H3R17Me (Abeam). Multiple pairs of primers spanning different regions of Sesn2 are designed to identify a p53 binding site at the Sesn2 gene. p53 binding is relatively […] at the +733 position in untreated U2OS cells, while its binding to this site is dramatically elevated after DNA damage induced by UV irradiation. After 8 hr YW3-56 treatment, p53 binding at the +733 position of Sesn2 is increased >4-fold with a concomitant increase of histone H3 Arg17 methylation (H3R17Me) (FIG. 14G, upper panel). In contrast, after YW3-56 treatment, a decrease in PAD4 binding and histone H3 citrullination (H3Cit) at the +733 position is consistently detected. ChIP results support a model in which p53 associates with while PAD4 dissociates from the Sesn2 promoter after YW3-56 treatment, allowing a decrease in H3Cit and an increase in H3R17Me to facilitate Sesn2 expression.
FIG. 14G, ChIP analyses of p53 and PAD4 association as well as histone H3R17Me and H3Cit modifications at the sestrin2 promoter before and after YW3-56 treatment at 8 μM for 8 hr. […]

[4] = tested on: U2OS cells; assay: Phase contrast microscopy of U2OS cell growth and morphology; assay type: cell-based, human; details: 0-16 μM, 24 hours
Procedure: Cell growth and morphology changes of cells treated with compounds of the present invention are analyzed using phase contrast microscopy.
A VistaVision invert microscope (VWR Inc.) equipped with a Spot Insight digital camera (NDS, Inc.) and a 10× phase contrast lens were used to analyze cell growth and morphology in phase contrast microscopy analyses.
In this example, U2OS are treated with […] YW3-56 for 24 hours.

[5] = tested on: p53 and its target genes; assay: RT-qPCR and Western blot of p53 and its target genes in U2OS cells; assay type: cell-based, human
Procedure: Western blot and immunostaining was performed essentially as described in Li, P. et al., Oncogene 29 (21), 3153-3162 (2010). Antibodies used in Western blot were anti-p53 (Sigma), anti-PAD4, anti-p21 (Sigma), anti-PUMA (Calbiochem), anti-SESN2 (Abeam), anti-p70S6K (Cell Signaling), anti-p70S6K-pT389 (Cell Signaling), anti-LC3 (Cell Signaling) and anti-β-actin (Sigma) at appropriate dilutions. Anti-LC3B antibody (Cell Signaling) was used for immunostaining. DNA was stained by the DNA dye Hoechst.
as §2
U2OS and S-180 cells were cultured in Dulbecco modified Eagle medium (DMEM) supplemented with 10% fetal bovine serum and 1% penicillin-streptomycin in a 5% CO2 incubator. U2OS p53-shRNA and U2OS Ctrl-shRNA cells were generated as described in Li, P. et al., Regulation of p53 target gene expression by peptidylarginine deiminase 4. Mol Cell Bial 28 (15), 4745-4758 (2008). Concentrations and duration of YW3-56 treatment were performed as specified in the figures and text. For starvation assay, U2OS cells were first cultured in serum-free DMEM for 16 hr, 10% fetal bovine serum and different concentrations of YW3-56 was then added back and cells were further incubated for 8 hr before further analyses. SESN2 siRNA (Santa Cruz) and GFP siRNA (Dharmacon Inc.) were transfected into U2OS cells using the XtremeGene siRNA transfection reagents (Roche Inc.). Cells were incubated in the presence of the siRNA for 48 hr before adding YW3-56 and further incubated for 8 hr before analyses.
The relative abundance of each gene is compared with β-actin as a reference. Increase in several p53 target genes, such as p21, GADD45, PUMA, OKL38, DRAM, and Sestrin2, is detected after YW3-88 treatment at 12 μM concentration. […] Increase in p21 and PUMA proteins is detected.

Compound: CN(C)c1ccc2cc(C(=O)N[C@@H](CCCNC(=N)CCl)C(=O)NCc3ccccc3)ccc2c1 [YW3-56]
- size of mouse body and vital organs [1]: not altered
- OKL38 mRNA change in liver ([2]; decrease): ~2 fold
- PUMA mRNA change in liver ([2]; decrease): ~2 fold
- p21 mRNA change in liver ([2]; increase): ~2 fold
- p53 mRNA change in liver ([2]; increase): ~2 fold
- changes in gene expression in spleen ([2]; 2-fold expression change as cut off): not detected
- PAD4 binding and histone H3 citrullination (H3Cit) at the +733 position [3]: decrease
- p53 binding at the +733 position of Sesn2, increase [3]: > 4 fold
- U2OS cell density in culture [4]: decreases U2OS cell density
- DRAM mRNA ([5]; U2OS cells): not altered
- p70S6K phosphorylation ([5]; U2OS cells with or without p53 depletion): inhibited
- sestrin1 and 2 mRNA and Sestrin2 protein levels ([5]; U2OS cells, concentration dependent): significantly increased
